Data taken from US10285983B2, “3-(1H-pyrrolo[2,3-B]pyridin-2-yl)-1H-pyrazolo[3,4-B] pyridines and therapeutic uses thereof” (Samumed, LLC, priority 2015, dated 2019).
pEC50: −log10 of the molar value.

What was measured:
Type in all cases: cell-based
[1] = system: primary human fibroblasts derived from IPF patients (LL29 cells); test: Inhibition of fibrotic process, αSMA staining in TGF-β1 treated LL29 fibroblasts; conditions: Fibroblast, 96 h, TGF-β1 20 ng/mL, 4 days; for pEC50: % αSMA positive cells
In short: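 IPF-patient LL29 lung fibroblasts in 1% FBS medium received compound (11-point, 1:2 dilution, 0.1% DMSO) plus TGF-β1 20 ng/mL, 4 days at 37 °C. Percent αSMA-positive cells among SYTOX-negative cells quantified by immunofluorescence imaging, normalized to TGF-β1/DMSO wells. EC50 by non-linear regression on triplicates; above 10 μM, % inhibition at 10 μM given.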

SW480 colon cancer cells = test: Cell viability assay (CellTiter-Blue); conditions: Homo sapiens, 96 h, four days; for inhibition at 10 µM: given for EC50 >10 μM, read-out: percent inhibition at 10 μM
In short: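 Four-day viability readout in SW480 cells: compound at 0.0045–10 μM (1:3 series), DMSO controls in eight replicates, CellTiter-Blue fluorescence after ~3 h. Values are regression-derived EC50s, or percent inhibition at 10 μM when EC50 exceeds 10 μM.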

[2] = system: Wnt activity (Sp5-Luc reporter, SW480 colon carcinoma cells); test: Wnt activity screening assay, Sp5-Luc reporter gene in SW480 cells; conditions: Homo sapiens; for inhibition at 10 µM: given for EC50 >10 μM, read-out: percent inhibition at 10 μM; for pEC50: overnight incubation
In short: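 SW480 colon carcinoma cells stably expressing firefly luciferase under a human Sp5 promoter (eight TCF/LEF sites), plated in 1% FBS medium. 10-point 1:3 dilutions from 10 μM, 0.1% DMSO final, overnight at 37 °C; luminescence normalized to DMSO, four-parameter fit for EC50, % inhibition at 10 μM if EC50 >10 μM.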

| pEC50 (SW480 colon cancer cells) | pEC50 [2] | SMILES | pEC50 [1] | inhibition at 10 µM ([1]; given for EC50 >10 μM, read-out: percent inhibition at 10 μM) [%] | inhibition at 10 µM (SW480 colon cancer cells) [%] | inhibition at 10 µM [2] [%] |
| --- | --- | --- | --- | --- | --- | --- |
| < 5.00 | < 5.00 | CN1CCN(c2ccnc3[nH]c(-c4n[nH]c5ncc(-c6cn[nH]c6)cc45)cc23)CC1 [Compound 635, 3-(4-(4-Methylpiperazin-1-yl)-1H-pyrrolo[2,3-b]pyridin-2-yl)-5-(1H-pyrazol-4-yl)-1H-pyrazolo[3,4-b]pyridine] | < 5.00 | 26 | 3.6 | 5.8 |
| < 5.00 | < 5.00 | Cn1cc(-c2cnc3[nH]nc(-c4cc5cccnc5[nH]4)c3c2)cn1 [Compound 652, 5-(1-Methyl-1H-pyrazol-4-yl)-3-(1H-pyrrolo[2,3-b]pyridin-2-yl)-1H-pyrazolo[3,4-b]pyridine] | 6.64 | – | 9.2 | 23.4 |
| < 5.00 | < 5.00 | c1csc(-c2ccnc3[nH]c(-c4n[nH]c5ncc(-c6cncc(OC7CCCCC7)c6)cc45)cc23)c1 [Compound 703, 5-(5-(Cyclohexyloxy)pyridin-3-yl)-3-(4-(thiophen-2-yl)-1H-pyrrolo[2,3-b]pyridin-2-yl)-1H-pyrazolo[3,4-b]pyridine] | 5.60 | – | 23.3 | 38.6 |

| SMILES | pEC50 (SW480 colon cancer cells) | pEC50 [2] | pEC50 [1] | inhibition at 10 µM ([1]; given for EC50 >10 μM, read-out: percent inhibition at 10 μM) [%] | inhibition at 10 µM (SW480 colon cancer cells) [%] | inhibition at 10 µM [2] [%] |
| --- | --- | --- | --- | --- | --- | --- |
| Cc1ncc(-c2cnc3[nH]nc(-c4cc5c(-c6cc(F)cc(NCCN(C)C)c6)ccnc5[nH]4)c3c2)n1C [Compound 781, N^1-(3-(2-(5-(1,2-Dimethyl-1H-imidazol-5-yl)-1H-pyrazolo[3,4-b]pyridin-3-yl)-1H-pyrrolo[2,3-b]pyridin-4-yl)-5-fluorophenyl)-N^2,N^2-dimethylethane-1,2-diamine] | < 5.00 | 5.35 | 6.03 | – | 0 | – |
